The data set is described as follows: gradient 5% acetonitrile 3 min, to 50% in 2 min, to 85% in 15 min, held 3 min, 100 µL/min. As to conditions: column: Zorbax Extend-C18 2.1 x 50 mm; eluents: water / acetonitrile, 0.1% formic acid. A digest of the protocol:
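Each retention time is based on an adduct peak selected computationally and verified by manual inspection. Measurements used HPLC–quadrupole time-of-flight mass spectrometry in positive and negative ionization mode on mixtures of ~100 pure standards. Chromatography ran on a Zorbax Extend-C18 column (2.1 × 50 mm, 1.8 μm) at 100 μL/min with water and acetonitrile, each containing 0.1% formic acid, and dead and dwell volumes of 40 μL and 900 μL.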
Take `CCOC(=O)c1[nH]c(C)c(CCC(=O)N2CCC(C(=O)NCc3ccc(C)cc3)CC2)c1C`: the RP-LC retention time was 826 s.

With `O=C(NCC1CCS(=O)(=O)C1)c1cc(-c2cccs2)[nH]n1` (stereo not given), the RP-LC retention time was 607 s.

In turn, `COc1ccc(-c2ccc(=O)n(CCCNC(=O)c3ccc(C(F)(F)F)cc3)n2)cc1` came in with an RP-LC retention time of 824 s.

Turning to `Cc1ccc(C(=O)N2CCN(c3nnc4ccccn34)CC2)cc1C`, the RP-LC retention time was 676 s.

The molecule `COc1cc(OC)cc(C(=O)N2CCC3(C2)C(=O)N(C)c2ccc(OC)cc23)c1` (stereo not given) registered an RP-LC retention time of 798 s.

`O=S(=O)(c1ccc2c(c1)-c1oncc1CO2)N1CCN(c2ccc(F)cc2)CC1` returned an RP-LC retention time of 1040 s.

`Cc1cccc(N2CCN(C(=O)C3CCCN(c4cnc5nccnc5c4)C3)CC2)c1` (stereo not given) displayed an RP-LC retention time of 775 s.

Turning to `CCC(=O)N(C1CCOCC1)C1CCN(S(=O)(=O)c2cc(F)ccc2C)CC1`, the RP-LC retention time turned out to be 864 s.

Consider `Cc1ccc(-c2nnc(Cc3nc(-c4ccc(F)c(F)c4)no3)o2)cc1F`, for which the RP-LC retention time was found to be 1110 s.

Turning to `COCC(=O)NC1CCC12CCN(C(=O)C1CCOCC1)CC2` (stereo not given), the RP-LC retention time worked out at 603 s.

As for `CC1CCCCN1Cc1nc(-c2ccc(N(C)Cc3ccccc3)nc2)no1` (stereo not given), the RP-LC retention time was determined as 912 s.

`CC(=O)N1CCCCC1c1nc(-c2cccnc2)no1` (stereo not given): the RP-LC retention time turned out to be 663 s.

Consider `CCn1c(=O)c2cc(C(=O)NCCc3ccc(OC)c(OC)c3)nn2c2ccccc21`, for which the RP-LC retention time is 910 s.

Molecule `Cc1ccc(N2CC(c3nc(-c4cccc(-c5ccnn5C)c4)no3)CC2=O)cc1` (stereo not given) yielded an RP-LC retention time of 605 s.

As to `Cc1nn(C(C)C(=O)Nc2ccc(F)cc2F)c(=O)c2c(-n3cccc3)n(-c3ccccc3)nc12` (stereo not given), the RP-LC retention time is 1100 s.

As for `O=C(Cc1nc(-c2ccccn2)n[nH]1)Nc1ccccc1`, the RP-LC retention time was 596 s.

`Cc1ccc(CCCN2CCCC(COc3ccccc3C(=O)N3CCCCC3)C2)o1` (stereo not given): the RP-LC retention time turned out to be 748 s.

In the case of `CC(=O)N1CCc2sc(C(=O)NCc3ccccc3Br)cc2C1`, the RP-LC retention time worked out at 770 s.

In the case of `Cc1cc(C)cc(NC(=O)Cn2nc(N3CCC(C)CC3)c3ccccc3c2=O)c1`, the RP-LC retention time stood at 1100 s.

The molecule `Nc1nc(Cl)cc(Nc2ccccc2Cl)n1` registered an RP-LC retention time of 845 s.

Turning to `Cc1ccc2c(Nc3ccc4c(c3)OCO4)c(C(=O)N3CCOCC3)cnc2n1`, the RP-LC retention time was 765 s.

The molecule `Cc1ccc(CNC(=O)c2cc(C)n3nc(-c4ccccn4)cc3n2)cc1` displayed an RP-LC retention time of 924 s.

`COc1ccc(-c2noc(CN3CCN(c4ccccc4)CC3)n2)cc1OC` came in with an RP-LC retention time of 846 s.

Molecule `N#Cc1ccc(C(=O)Nc2ccc(-c3nnc4n3CCCC4)cc2)cc1` came in with an RP-LC retention time of 643 s.

For `CCOc1ccc(-c2cc3c(=O)n(Cc4nc(-c5ccccc5Cl)no4)ncn3n2)cc1`, the RP-LC retention time came out at 1150 s.

`Cc1nccn1CC(=O)N1CCCC(OCc2nc(C3CC3)no2)C1` (stereo not given) came in with an RP-LC retention time of 577 s.

In turn, `O=C(Nc1cnc(N2CCCC2)nc1)c1ccc(F)c(F)c1` showed an RP-LC retention time of 748 s.

Molecule `O=C(Cn1c(C2CC(=O)N(C3CCCCC3)C2)nc2ccccc21)N1CCOCC1` (stereo not given) registered an RP-LC retention time of 630 s.

In the case of `CCOc1ccc(OCC)c(S(=O)(=O)Nc2ccc(-c3cn4ccc(C)nc4n3)cc2)c1`, the RP-LC retention time amounted to 697 s.

For `Cn1cc(-c2nc(C(=O)N3CCN(c4ccccc4Cl)CC3)cs2)c2cccnc21`, the RP-LC retention time was 1070 s.

For the molecule `NS(=O)(=O)c1ccc(CCNS(=O)(=O)c2cc(-c3ccno3)cs2)cc1`, the RP-LC retention time worked out at 748 s.

`Cc1ccc2c(c1)OCC(=O)N2Cc1nc(-c2ccccc2C)no1` had an RP-LC retention time of 1120 s.

`CCOC(=O)c1ccc(NC(=O)COc2cccc3ccc(N4CCOCC4)nc23)cc1` registered an RP-LC retention time of 654 s.

In the case of `Cc1cc(-c2nnc(-c3ccccc3)o2)c(C)n1CC(=O)Nc1cccc(Cl)c1`, the RP-LC retention time stood at 1030 s.

For the molecule `CCc1onc(C)c1C1CCCN1C(=O)Nc1ccc(C)cc1` (stereo not given), the RP-LC retention time turned out to be 844 s.

As for `COc1c2c(cc3c1OCO3)CCN(C)C2`, the RP-LC retention time is 598 s.

In turn, `COc1ccc(C(=O)NC2CCN(c3ccc(=O)[nH]n3)C2)c(OC)n1` (stereo not given) returned an RP-LC retention time of 660 s.

`COc1ccc(NC(=O)C2c3ccccc3C(=O)N3CCc4cc(OC)c(OC)cc4C23)c(OC)c1` (stereo not given) came in with an RP-LC retention time of 814 s.

In turn, `COc1ccc(CNc2ncc(C(=O)O)c(C(C)C)n2)cc1OC` came in with an RP-LC retention time of 863 s.

With `CC1=NS(=O)(=O)N(C)C=C1C(=O)OCc1nc(-c2cccc(C)c2)no1`, the RP-LC retention time is 1020 s.

On to `Cc1ccccc1S(=O)(=O)N1CCC2(CC1)NCCN=C2NCc1cc(F)cc(F)c1`, for which the RP-LC retention time came to 730 s.

Molecule `CNC(=O)CCc1nc2ccccc2n(CC(=O)NCc2ccc(F)cc2)c1=O` gave an RP-LC retention time of 666 s.

`Cc1cc2oc(C(=O)NCCc3nc(-c4ccccc4)no3)c(C)c2cc1C` had an RP-LC retention time of 1210 s.

The molecule `O=C(CC1CCN(C(=O)c2ccc3oc(C4CC4)nc3c2)CC1)NC1CCCC1` displayed an RP-LC retention time of 715 s.

`CS(=O)(=O)N1CC[C@H]2CN(Cc3cn[nH]c3-c3ccccc3)C[C@@]2(CF)C1` had an RP-LC retention time of 592 s.

`COc1cccc(NS(=O)(=O)c2c[nH]c3ncccc23)c1` had an RP-LC retention time of 688 s.

Turning to `COc1ccc(-c2cn3c(CC(=O)N4CCN(c5ccccn5)CC4)csc3n2)cc1OC`, the RP-LC retention time stood at 1030 s.

Molecule `O=C(NCCc1c[nH]c2ccccc12)C1COc2ccccc2O1` (stereo not given) showed an RP-LC retention time of 866 s.

Molecule `COc1cc(OC)cc(C(=O)N2CCC3(CC2)N=C(c2ccccc2)NO3)c1` gave an RP-LC retention time of 810 s.

The molecule `CCc1nnc2c(=O)n(CC(=O)N3CCN(c4ccccn4)CC3)c3cccnc3n12` displayed an RP-LC retention time of 560 s.

With `O=C(Nc1cnc(-c2cccnc2)nc1)C1CCCC1`, the RP-LC retention time came out at 654 s.

In turn, `Cc1nc(CC(=O)Nc2c(F)cccc2F)sc1C(=O)NC1CC1` yielded an RP-LC retention time of 660 s.

As to `Cc1nc(-c2csc(S(=O)(=O)N3CCCC(C(=O)Nc4ccc(F)cc4F)C3)c2)no1` (stereo not given), the RP-LC retention time is 952 s.

Turning to `O=C(Nc1ccncc1)c1cc([N+](=O)[O-])ccc1Cl`, the RP-LC retention time was 638 s.

In turn, `O=C(Cc1ccccc1Cl)Nc1cnc(N2CCCC2)nc1` gave an RP-LC retention time of 604 s.

`Cc1cccc(-n2cc(C(=O)OCc3ccncc3)c3ccccc3c2=O)c1` showed an RP-LC retention time of 743 s.

In the case of `O=C(c1cn(-c2cc(N3CCCCC3)ncn2)cn1)N1CCN(c2ncccn2)CC1`, the RP-LC retention time turned out to be 785 s.

`CC(C)NC(=O)c1ccc(OCC2CCN(C(=O)c3cc(F)ccc3F)CC2)cc1` had an RP-LC retention time of 850 s.

On to `COc1ccc(Nc2c(-c3ccc(OC)c(OC)c3)nc3cnccn23)cc1OC`, for which the RP-LC retention time was determined as 672 s.

Turning to `Cc1cnc(C2CC2)n1C1CCCN(S(=O)(=O)c2ccccc2)C1` (stereo not given), the RP-LC retention time was determined as 654 s.

Consider `CC(=O)c1ccc(NC(=O)C2Oc3ccccc3NC2=O)cc1` (stereo not given), for which the RP-LC retention time was 683 s.

On to `COc1ccc(C2Cn3nnc(-c4nc(-c5ccc(C)c(C)c5)no4)c3CO2)cc1` (stereo not given), for which the RP-LC retention time was determined as 1270 s.

`CC(C)n1c(CCNC(=O)c2ccc(C#N)cc2)nc2cccnc21` yielded an RP-LC retention time of 639 s.

In the case of `O=c1n(Cc2c(F)cccc2Cl)nc2ccc(S(=O)(=O)N3CCOCC3)cn12`, the RP-LC retention time was found to be 821 s.

`CCCN(CCC)c1ncc(NC(=O)c2ccc(Br)cc2)cc1C(=O)O`: the RP-LC retention time was 766 s.

In turn, `Cc1cccc(Cn2c(=O)n(CCNC(=O)c3cccn3C)c3ncccc32)c1` had an RP-LC retention time of 826 s.

`CCOc1ccc(Nc2c(-c3nc(C)no3)cnc3nc(C)ccc23)cc1`: the RP-LC retention time came out at 778 s.

With `CN1C(=O)CS(=O)C12CCN(C(=O)Nc1ccccc1)CC2` (stereo not given), the RP-LC retention time was 599 s.

`O=C(c1cn[nH]c1)N1CCC(c2nc(CCOCC3CC3)no2)C1` (stereo not given) gave an RP-LC retention time of 626 s.

On to `COc1cccc(NC(=O)c2cnc3c(c2)c(=O)n(C)c(=O)n3C)c1`, for which the RP-LC retention time turned out to be 795 s.

In turn, `O=C(Cc1csc(NC(=O)c2ccc[nH]c2=O)n1)NCc1cccs1` came in with an RP-LC retention time of 626 s.

The molecule `CCOc1ccc(NC(=O)N2CCCN(c3ncccc3-c3nc(C4CC4)no3)CC2)cc1` registered an RP-LC retention time of 944 s.

For the molecule `COc1ccc(OC)c(-c2cn3ccn(-c4ccc(F)c(Cl)c4)c(=O)c3n2)c1`, the RP-LC retention time is 929 s.

The molecule `C=CCSc1nc(N)c2c(C)c(C(=O)O)sc2n1` had an RP-LC retention time of 708 s.

In the case of `Cc1nn(-c2ccc(F)cc2)c(C)c1S(=O)(=O)N1CCC(C(=O)Nc2ccccc2F)CC1`, the RP-LC retention time amounted to 949 s.

Turning to `CCCC(C)C(=O)N1CCCN(C2=NS(=O)(=O)C(c3ccc(C)cc3)=C2C)CC1` (stereo not given), the RP-LC retention time was 884 s.

Take `CCc1cc(C(=O)N2CCN(CC(C)C)CC2)nc2cc(-c3ccccn3)nn12`: the RP-LC retention time was 610 s.

Molecule `O=C(NCc1cccc(C(F)(F)F)c1)C1CCCN(c2nccnc2Oc2ccccc2)C1` (stereo not given) registered an RP-LC retention time of 1040 s.

`COc1ccc(C2Cn3nnc(-c4nc(-c5ccc(C)cc5)no4)c3CO2)cc1` (stereo not given): the RP-LC retention time was 1180 s.

For `CCOC(=O)c1[nH]c(C)c(CCC(=O)N2CCC(C(=O)NCc3cccnc3)CC2)c1C`, the RP-LC retention time was found to be 597 s.

Values taken from the METLIN SMRT retention time set (Domingo-Almenara et al. 2019).
